For 14 molecules, melting point, CC50 and EC50 results are on record in US10689340B2, “Substituted indoline derivatives as dengue viral replication inhibitors” (priority 2016, dated 2020).

Where a name gives a salt, the structure may show the parent alone.

Series [1] relates to Vero cells. Particulars: African green monkey.
The subject of series [2] is DENV-4 strain H241. Briefly: Tetravalent RT-qPCR assay, serotype 4. In kind it is cell-based. Particulars: Dengue virus, DENV4, 72 h; RT-qPCR serotype 4 H241, Protocol A, Vero cells, day 3. The method, then: (§1) The antiviral activity of the compounds of the invention was tested against DENV-1 strain TC974#666 (NCPV), DENV-2 strain 16681, DENV-3 strain H87 (NCPV) and DENV-4 strain H241 (NCPV) in a RT-qPCR assay. Therefore, Vero cells were infected with either DENV-1, or -2, or -3, or -4 in the presence or absence of test compounds. At day 3 post-infection, the cells were lysed and cell lysates were used to prepare cDNA of both a viral target (the 3′UTR of DENV; Table 2) and a cellular reference gene (β-actin, Table 2). Subsequently, a duplex real time PCR was performed on a Lightcycler480 instrument. The generated Cp value is inversely proportional to the amount of RNA expression of these targets. Inhibition of DENV replication by a test compound results in a shift of Cp's for the 3′UTR gene. On the other hand, if a test compound is toxic to the cells, a similar effect on β-actin expression will be observed. The comparative ΔΔCp method is used to calculate EC50, which is based on the relative gene expression of the target gene (3′UTR) normalized with the cellular housekeeping gene (β-actin). In addition, CC50 values are determined based on the Cp values acquired for the housekeeping gene β-actin.
(§2) The culture medium consisted of minimal essential medium supplemented with 2% of heat-inactivated fetal calf serum, 0.04% gentamycin (50 mg/mL) and 2 mM of L-glutamine. Vero cells, obtained from ECACC, were suspended in culture medium and 75 μL/well was added in 96-well plates (10000 cells/well), which already contain the antiviral compounds. […] In addition, each plate contains wells which are assigned as virus controls (containing cells and virus in the absence of compound) and cell controls (containing cells in the absence of virus and compound). Once the cells were added in the plates, the plates were incubated in a fully humidified incubator (37° C., 5% CO2) until the next day. Dengue viruses serotype-1, -2, -3 and -4 were diluted in order to obtain a Cp of ˜22-24 in the assay. Therefore, 25 μL of virus suspension was added to all the wells containing test compound and to the wells assigned as virus control. In parallel, 25 μL of culture medium was added to the cell controls. Next, the plates were incubated for 3 days in a fully humidified incubator (37° C., 5% CO2). After 3 days, the supernatant was removed from the wells and the cells were washed twice with ice-cold PBS (˜100 μL). The cell pellets within the 96-well plates were stored at −80° C. for at least 1 day. Next, RNA was extracted using the Cells-to-CT^Tm lysis kit, according to the manufacturer's guideline (Life Technologies). The cell lysates can be stored at −80° C. or immediately used in the reverse transcription step.
(§3) In preparation of the reverse transcription step, mix A (table 3A) was prepared and 7.57 μL/well was dispensed in a 96-well plate. After addition of 5 μL of the cell lysates, a five minute denaturation step at 75° C. was performed (table 3B). Afterwards, 7.43 μL of mix B was added (table 3C) and the reverse transcription step was initiated (table 3D) to generate cDNA.
(§4) Finally, a RT-qPCR mix was prepared, mix C (table 4A), and 22.02 μL/well was dispensed in 96-well LightCycler qPCR plates to which 3 μL of cDNA was added and the qPCR was performed according to the conditions in table 4B on a LightCycler 480.
(§5) Using the LightCycler software and an in-house LIMS system, dose response curves for each compound were calculated and the half maximal effective concentration (EC50) and the half maximal cytotoxic concentration (CC50) were determined (Tables 5-8).

In series [3] the test system is DENV-2 16681 strain. Briefly: DENV-2 antiviral assay (eGFP fluorescence). It is filed as cell-based, Dengue virus. As to conditions: DENV-2 16681 eGFP, Vero cells, MOI 0.5, 3 days. The method, then:
The antiviral activity of all the compounds of the invention was tested against the DENV-2 16681 strain which was labeled with enhanced green fluorescent protein (eGPF). The culture medium consists of minimal essential medium supplemented with 2% of heat-inactivated fetal calf serum, 0.04% gentamycin (50 mg/mL) and 2 mM of L-glutamine. Vero cells, obtained from ECACC, were suspended in culture medium and 25 μL was added to 384-well plates (2500 cells/well), which already contain the antiviral compounds. Typically, these plates contain a 5-fold serial dilution of 9 dilution steps of the test compound at 200 times the final concentration in 100% DMSO (200 nL). […] Finally, each plate contains wells which are assigned as virus controls (containing cells and virus in the absence of compound), cell controls (containing cells in the absence of virus and compound) and medium controls (containing medium in the absence of cells, virus and compounds). To the wells assigned as medium control, 25 μL of culture medium was added instead of Vero cells. Once the cells were added to the plates, the plates were incubated for 30 minutes at room temperature to allow the cells to distribute evenly within the wells. Next, the plates were incubated in a fully humidified incubator (37° C., 5% CO2) until the next day. Then, DENV-2 strain 16681, labeled with eGFP, was added at a multiplicity of infection (MOI) of 0.5. Therefore, 15 μL of virus suspension was added to all the wells containing test compound and to the wells assigned as virus control. In parallel, 15 μL of culture medium was added to the medium and cell controls. Next, the plates were incubated for 3 days in a fully humidified incubator (37° C., 5% CO2). At the day of the read out, the eGFP fluorescence was measured using an automated fluorescence microscope at 488 nm (blue laser). Using an in-house LIMS system, inhibition dose response curves for each compound were calculated and the half maximal effective concentration (EC50) was determined. Therefore, the percent inhibition (I) for every test concentration is calculated using the following formula: I=100*(ST-SCC)/(SVC-SCC); ST, SCC and SVC are the amount of eGFP signal in the test compound, cell control and virus control wells, respectively. The EC50, represents the concentration of a compound at which the virus replication is inhibited with 50%, as measured by a 50% reduction of the eGFP fluorescent intensity compared to the virus control. The EC50 is calculated using linear interpolation (Table 1).

In series [4] the test system is DENV-2 strain 16681. Briefly: Tetravalent RT-qPCR assay, serotype 2. It is filed as cell-based. As to conditions: Dengue virus, DENV2, 72 h; RT-qPCR serotype 2 16681, Protocol A, Vero cells, day 3. The method, then:
as §1, §2, §3, §4, §5

Series [5] deals with DENV-1 strain TC974#666. Briefly: Tetravalent RT-qPCR assay, serotype 1. It is filed as cell-based. As to conditions: Dengue virus, DENV1, Vero, 72 h. The protocol:
as §1, §2, §3, §4, §5

The test system of series [6] is DENV-3 strain H87. Briefly: Tetravalent RT-qPCR assay, serotype 3. As to conditions: Dengue virus, DENV3, 72 h; RT-qPCR serotype 3 H87, Protocol A, Vero cells, day 3. It is filed as cell-based. The protocol: as §1, §2, §3, §4, §5
Series [7] in a line: in vitro. Particulars: African green monkey.

Turning to `COc1cc(NC(C(=O)N2CCc3ccc(OC(F)(F)F)cc32)c2ccc(F)cc2)cc(OCCCC(=O)O)c1` (racemic) (as salt: HCl) [Compound 2, 4-(3-((1-(4-fluorophenyl)-2-oxo-2-(6-(trifluoromethoxy)indolin-1-yl)ethyl)amino)-5-methoxyphenoxy)butanoic acid], the melting point was determined as 136 °C.
The same measure, in the same setting: the figure for `COc1cc(NC(C(=O)N2CCc3cc(OC)c(C(F)(F)F)cc32)c2ccc(Cl)cc2)cc(OCCCC(=O)O)c1` (racemic) (as salt: HCl) [Compound 5, 4-(3-((1-(4-chlorophenyl)-2-(5-methoxy-6-(trifluoromethyl)indolin-1-yl)-2-oxoethyl)amino)-5-methoxyphenoxy)butanoic Acid] is 130 °C; for `COc1cc(NC(C(=O)N2CCc3ccc(C(F)(F)F)cc32)c2ccc(Cl)cc2OC)cc(OCCCC(=O)O)c1` (racemic) (as salt: HCl) [Compound 6, 4-(3-((1-(4-chloro-2-methoxyphenyl)-2-oxo-2-(6-(trifluoro-methyl)indolin-1-yl)ethyl)amino)-5-methoxyphenoxy)butanoic acid] it is 178 °C.
Take `COc1cc(NC(C(=O)N2CCc3ccc(C(F)(F)F)cc32)c2ccc(F)cc2)cc(OCCCC(=O)O)c1` (single isomer, unassigned) [Compound 1B]: the CC50 in series [1] is 20000 nM. The EC50 in series [2] was determined as 51 nM; in series [3], 0.84 nM; in series [4] it was 0.48 nM; in series [5] it was 0.28 nM; in series [6], 3.4 nM.
Take `COc1cc(NC(C(=O)N2CCc3ccc(OC(F)(F)F)cc32)c2ccc(F)cc2)cc(OCCCC(=O)O)c1` (single isomer, unassigned) [Compound 2B]: the CC50 in series [1] was 20000 nM. In addition, the concentration for a half-maximal effect (EC50) came to 30 nM in series [2]; 0.24 nM in series [3]; 0.28 nM in series [4]; 0.3 nM in series [5]; 4.6 nM in series [6].
Turning to `COc1cc(NC(C(=O)N2CCc3ccc(C(F)(F)F)cc32)c2ccc(Cl)cc2)cc(OCCCC(=O)O)c1` (single isomer, unassigned) [Compound 3B], the CC50 in series [1] turned out to be 13000 nM. Moreover, the concentration giving a half-maximal response (EC50) in series [2] amounted to 14 nM; in series [3] it was 0.14 nM; in series [4], 0.12 nM; in series [5] it was 0.18 nM; in series [6] it was 1.1 nM.
The molecule `COc1cc(NC(C(=O)N2CCc3ccc(OC(F)(F)F)cc32)c2ccc(Cl)cc2)cc(OCCCC(=O)O)c1` (single isomer, unassigned) [Compound 4B] had a CC50 in series [1] of 13000 nM. Besides, the EC50 is 11 nM in series [2]; 0.12 nM in series [3]; 0.06 nM in series [4]; 0.048 nM in series [5]; 0.66 nM in series [6].
`COc1cc(NC(C(=O)N2CCc3cc(OC)c(C(F)(F)F)cc32)c2ccc(Cl)cc2)cc(OCCCC(=O)O)c1` (single isomer, unassigned) [Compound 5B] yielded a CC50 in series [1] of 13000 nM. Further, the concentration for a half-maximal effect (EC50) stood at 24 nM in series [2]; 0.18 nM in series [3]; 0.17 nM in series [4]; 0.74 nM in series [5]; 4.6 nM in series [6].
As for `COc1cc(NC(C(=O)N2CCc3cc(OC)c(C(F)(F)F)cc32)c2ccc(Cl)cc2OC)cc(OCCCC(=O)O)c1` (single isomer, unassigned) [Compound 7B], the CC50 in series [1] came out at 13000 nM. Also, the EC50 in series [2] amounted to 25 nM; in series [3], 0.17 nM; in series [4], 0.28 nM; in series [5] it was 0.61 nM; in series [6] it was 5.8 nM.
Turning to `COc1cc(NC(C(=O)N2CCc3ccc(OC(F)(F)F)cc32)c2ccc(Cl)cc2OC)cc(OCCCC(=O)O)c1` (single isomer, unassigned) [Compound 8B], the CC50 in series [1] came out at 14000 nM. Further, the concentration for a half-maximal effect (EC50) stood at 12 nM in series [2]; 0.066 nM in series [3]; 0.062 nM in series [4]; 0.15 nM in series [5]; 1 nM in series [6].
On to `COc1cc(NC(C(=O)N2CCc3ccc(C(F)(F)F)cc32)c2ccc(Cl)cc2F)cc(OCCCC(=O)O)c1` (single isomer, unassigned) [Compound 9B], for which the CC50 in series [1] stood at 13000 nM. Moreover, the EC50 in series [2] was 31 nM; in series [3], 0.4 nM; in series [4], 0.3 nM; in series [5], 0.22 nM; in series [6], 4.1 nM.
Turning to `COc1cc(NC(C(=O)N2CCc3ccc(OC(F)(F)F)cc32)c2ccc(Cl)cc2F)cc(OCCCC(=O)O)c1` (single isomer, unassigned) [Compound 10A], the EC50 in series [2] stood at 10 nM; in series [3], 0.19 nM; in series [4], 0.2 nM; in series [5], 0.16 nM; in series [6], 2.1 nM. In series [7], the CC50 was found to be 13000 nM.
In series [1], `COc1cc(NC(C(=O)N2CCc3cc(OC)c(C(F)(F)F)cc32)c2ccc(Cl)cc2F)cc(OCCCC(=O)O)c1` (single isomer, unassigned) [Compound 11B] came in with a CC50 of 12000 nM. For the same molecule, the half-maximal effective concentration (EC50) was 22 nM in series [2]; 0.15 nM in series [3]; 0.17 nM in series [4]; 0.67 nM in series [5]; 5.4 nM in series [6].
Consider `COc1cc(NC(C(=O)N2CCc3cc(OC)c(OC(F)(F)F)cc32)c2ccc(Cl)cc2)cc(OCCCC(=O)O)c1` (single isomer, unassigned) [Compound 12B], for which, in series [1], the CC50 is 12000 nM. The EC50 in series [2] came to 28 nM; in series [3], 0.35 nM; in series [4], 0.22 nM; in series [5], 0.68 nM; in series [6] it was 4.1 nM.
